Test system: 575 putative partners (preys) of 22 WT SH3-containing proteins
Experiment: DHFR-PCA on solid medium, WT and SH3-deleted baits (Fig. 1B)
Type: cell-based, Saccharomyces cerevisiae
Set-up: key to Score: 0: SH3-independent; 1: SH3-dependent PPIs; 2: SH3-inhibited PPIs
Conditions: for SH3-dependent PPIs: number of PPIs, SH3 domain in its own protein, DHFR-PCA, Fig2D,S2F
Outline: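 Interactions scored by DHFR protein-fragment complementation on solid medium using robotic pinning; preys (DHFR F[3] fusions) arrayed in duplicate with control borders. Baits carried C-terminal DHFR F[1,2]-FLAG tags, tested as wild type and as SH3-deleted versions carrying a flexible Gly/Ser stuffer.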

| Substance | SH3-dependent PPIs | medrep (log2 median colony size normalized to plate background, PCA score) (bait SLA1-3, DHFR-PCA, label = prey, Replicates 4 (2 for YCR009C, YDR388W, YIL033C)) | Score (bait SLA1-3, label = prey) |
| --- | --- | --- | --- |
| CDC25 | 3 |  |  |
| RVS167 | 31 |  |  |
| YAL005C |  | 5.601 | 0 |
